Drawing on US7879881B2, “Piperidinyl compounds that selectively bind integrins” (Janssen Pharmaceutica NV, priority 2002, dated 2011), this text covers IC50 for 22 compounds.

For one experiment, the target named is GP IIb/IIIa (Homo sapiens, UniProt P05106+P08514). As to the kind of experiment: In Vitro Solid Phase Purified GP IIb/IIIa Binding Assay (biotinylated fibrinogen). Particulars: biotinylated fibrinogen binding to immobilized purified GP IIb/IIIa, mean ± spread. Here is the method:
In Vitro Solid Phase Purified GP IIb/IIIa Binding Assay
The plate was covered and incubated overnight at 4° C. The GP IIb/IIIa solution was discarded and 150 μL of 5% BSA was added and incubated at RT for 1-3 h. The plate was washed extensively with modified Tyrodes buffer. Biotinylated fibrinogen (25 μL/well) at 2× final concentration was added to the wells that contain the test compounds (25 μL/well). The plate was covered and incubated at RT for 2-4 h. Twenty minutes prior to incubation completion, one drop of Reagent A (VectaStain ABC Horseradish Peroxidase kit, Vector Laboratories, Inc.) and one drop Reagent B were added with mixing to 5 mL modified Tyrodes buffer mix and let stand. The ligand solution was discarded and the plate washed (5×200 μL/well) with modified Tyrodes buffer. […] The Vecta Stain solution was discarded and the wells washed (5×200 μL/well) with modified Tyrodes buffer. Developing buffer (10 mL of 50 mM citrate/phosphate buffer @ pH 5.3, 6 mg o-phenylenediamine, 6 μL 30% H2O2; 50 μL/well) was added and incubated at RT for 3-5 min and then 2 N H2SO4 (50 μL/well) was added.

A further experiment concerns the target T1, human purified αVβ5 (Homo sapiens, UniProt P06756+P18084).
T1 construct: purchased Chemicon International, Inc
Description: In Vitro Solid Phase Purified αcβ5 Binding Assay (vitronectin/αVβ5). Conditions: vitronectin binding to immobilized purified human αVβ5; mean ± spread; read-out: αvβ5 IC50. Here is the method:
(§1) Human αvβ3 (Chemicon International Inc., Temecula, Calif.), at a concentration of 1 μg/ml dissolved in Tris buffer (20 mM Tris, 1 mM CaCl2, 1 mM MgCl2, 10 μM MnCl2, 150 mM NaCl), was immobilized on Immulon 96 well plates (Dynex Technologies, Chantilly, Va.) overnight at 4° C. Plates were washed and treated with blocking buffer (3% BSA in Tris buffer) for 2 h at 37° C. Plates were then rinsed 2 times with assay buffer comprised of Tris buffer. Synthesized compounds were added to wells in duplicate immediately prior to the addition of 2 nM vitronectin (Sigma, St. Louis, Mo.). Following a 3 hour incubation at 37° C., plates were washed 5 times in assay buffer. An anti-human vitronectin IgG rabbit polyclonal antibody (Calbiochem, San Diego, Calif.) was added (1:2000) and plates were incubated for 1 hour at room temperature. VectaStain ABC peroxidase kit reagents (Vector Laboratories, Burlingame, Calif.) employing a biotin labeled anti-rabbit IgG, were utilized for detection of bound antibody. Plates were read at 490 nm on a Molecular Devices (Sunnyvale, Calif.) microplate reader.
In Vitro Solid Phase Purified αcβ5 Binding Assay
All other aspects of the assay including buffers, reagents and incubation times remain unchanged.

In another experiment the target is T2, Human αvβ3 (Homo sapiens, UniProt P05106+P06756).
T2 construct: purchased Chemicon International Inc., Temecula, Calif
Description: In Vitro Solid Phase Purified αvβ3 Binding Assay (vitronectin/αvβ3). Conditions: vitronectin binding to immobilized purified human αvβ3; mean ± spread; read-out: αvβ3IC50. Here is the method:
In Vitro Solid Phase Purified αvβ3 Binding Assay
as §1

Where two headings read alike, the source gives them in different places.

T1 sequence (P06756 31-889 limits assumed): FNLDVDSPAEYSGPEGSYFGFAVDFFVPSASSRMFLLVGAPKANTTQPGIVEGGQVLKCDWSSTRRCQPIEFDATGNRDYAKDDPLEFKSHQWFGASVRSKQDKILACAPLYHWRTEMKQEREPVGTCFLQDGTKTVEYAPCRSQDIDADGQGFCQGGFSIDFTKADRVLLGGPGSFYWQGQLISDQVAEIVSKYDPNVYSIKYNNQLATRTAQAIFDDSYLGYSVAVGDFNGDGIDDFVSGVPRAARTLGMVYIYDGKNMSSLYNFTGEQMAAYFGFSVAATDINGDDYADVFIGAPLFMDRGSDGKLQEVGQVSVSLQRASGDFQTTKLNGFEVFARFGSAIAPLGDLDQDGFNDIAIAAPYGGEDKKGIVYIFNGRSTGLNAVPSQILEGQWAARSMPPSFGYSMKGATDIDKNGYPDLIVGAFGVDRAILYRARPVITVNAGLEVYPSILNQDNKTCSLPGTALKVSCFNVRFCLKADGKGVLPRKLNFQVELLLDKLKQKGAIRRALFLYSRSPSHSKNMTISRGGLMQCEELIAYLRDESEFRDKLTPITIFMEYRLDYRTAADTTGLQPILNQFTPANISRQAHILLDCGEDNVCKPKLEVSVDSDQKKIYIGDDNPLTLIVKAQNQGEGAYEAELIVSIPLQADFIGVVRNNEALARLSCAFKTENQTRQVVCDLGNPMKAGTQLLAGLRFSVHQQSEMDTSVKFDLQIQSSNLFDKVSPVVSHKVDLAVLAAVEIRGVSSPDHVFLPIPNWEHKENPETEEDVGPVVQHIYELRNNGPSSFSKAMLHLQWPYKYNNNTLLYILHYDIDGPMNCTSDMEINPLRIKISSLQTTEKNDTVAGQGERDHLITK
T1 sequence (P06756 891-1048 partner limits assumed): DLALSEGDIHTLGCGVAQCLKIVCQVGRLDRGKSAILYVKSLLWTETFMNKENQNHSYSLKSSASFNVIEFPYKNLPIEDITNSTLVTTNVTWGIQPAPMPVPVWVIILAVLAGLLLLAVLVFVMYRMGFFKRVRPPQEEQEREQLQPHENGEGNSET
T1 sequence (P18084 24-799): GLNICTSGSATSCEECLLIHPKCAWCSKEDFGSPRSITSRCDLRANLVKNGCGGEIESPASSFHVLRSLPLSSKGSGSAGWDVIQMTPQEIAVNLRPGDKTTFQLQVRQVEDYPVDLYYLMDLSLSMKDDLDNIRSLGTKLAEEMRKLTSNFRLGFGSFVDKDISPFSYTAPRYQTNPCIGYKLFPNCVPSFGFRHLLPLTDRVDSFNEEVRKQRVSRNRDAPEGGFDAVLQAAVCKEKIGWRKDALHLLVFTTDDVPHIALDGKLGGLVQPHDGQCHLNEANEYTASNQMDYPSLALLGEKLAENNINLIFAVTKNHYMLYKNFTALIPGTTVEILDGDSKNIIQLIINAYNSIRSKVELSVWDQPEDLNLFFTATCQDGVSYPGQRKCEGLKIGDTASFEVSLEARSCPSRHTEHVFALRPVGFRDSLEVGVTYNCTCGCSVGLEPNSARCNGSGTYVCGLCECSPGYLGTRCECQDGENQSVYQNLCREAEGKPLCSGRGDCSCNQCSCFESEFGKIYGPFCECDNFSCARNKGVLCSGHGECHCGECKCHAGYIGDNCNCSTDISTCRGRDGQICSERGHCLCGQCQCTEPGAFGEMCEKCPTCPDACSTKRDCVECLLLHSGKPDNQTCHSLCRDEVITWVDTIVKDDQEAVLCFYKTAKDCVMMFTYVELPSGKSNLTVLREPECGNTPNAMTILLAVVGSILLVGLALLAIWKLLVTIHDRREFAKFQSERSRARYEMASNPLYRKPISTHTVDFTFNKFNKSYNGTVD
T2 sequence (P06756 31-889 limits assumed): as the sequence (P06756 31-889 limits assumed) above
T2 sequence (P06756 891-1048 partner limits assumed): as the sequence (P06756 891-1048 partner limits assumed) above
T2 sequence (P05106 27-788): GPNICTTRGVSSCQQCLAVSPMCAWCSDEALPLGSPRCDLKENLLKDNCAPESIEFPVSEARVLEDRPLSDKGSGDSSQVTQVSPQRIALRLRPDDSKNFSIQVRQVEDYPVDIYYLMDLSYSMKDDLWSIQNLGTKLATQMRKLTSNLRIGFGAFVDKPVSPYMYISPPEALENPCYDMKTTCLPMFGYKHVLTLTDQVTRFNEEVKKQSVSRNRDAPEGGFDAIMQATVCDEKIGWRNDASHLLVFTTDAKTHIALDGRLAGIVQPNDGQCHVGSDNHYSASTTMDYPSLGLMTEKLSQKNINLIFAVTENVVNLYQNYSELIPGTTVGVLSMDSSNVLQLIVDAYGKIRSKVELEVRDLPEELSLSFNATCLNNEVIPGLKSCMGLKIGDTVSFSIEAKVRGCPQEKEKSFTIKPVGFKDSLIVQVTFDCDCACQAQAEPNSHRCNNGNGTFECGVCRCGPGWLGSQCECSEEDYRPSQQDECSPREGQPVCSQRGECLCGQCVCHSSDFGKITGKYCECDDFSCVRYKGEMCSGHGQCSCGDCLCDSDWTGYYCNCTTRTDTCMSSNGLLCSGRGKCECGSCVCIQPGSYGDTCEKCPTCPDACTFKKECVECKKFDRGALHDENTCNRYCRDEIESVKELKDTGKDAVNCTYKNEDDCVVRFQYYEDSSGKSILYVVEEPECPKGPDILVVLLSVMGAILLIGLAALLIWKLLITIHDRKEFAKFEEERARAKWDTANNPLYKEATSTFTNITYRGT
Sequence of GP IIb/IIIa (P08514 32-887 limits assumed): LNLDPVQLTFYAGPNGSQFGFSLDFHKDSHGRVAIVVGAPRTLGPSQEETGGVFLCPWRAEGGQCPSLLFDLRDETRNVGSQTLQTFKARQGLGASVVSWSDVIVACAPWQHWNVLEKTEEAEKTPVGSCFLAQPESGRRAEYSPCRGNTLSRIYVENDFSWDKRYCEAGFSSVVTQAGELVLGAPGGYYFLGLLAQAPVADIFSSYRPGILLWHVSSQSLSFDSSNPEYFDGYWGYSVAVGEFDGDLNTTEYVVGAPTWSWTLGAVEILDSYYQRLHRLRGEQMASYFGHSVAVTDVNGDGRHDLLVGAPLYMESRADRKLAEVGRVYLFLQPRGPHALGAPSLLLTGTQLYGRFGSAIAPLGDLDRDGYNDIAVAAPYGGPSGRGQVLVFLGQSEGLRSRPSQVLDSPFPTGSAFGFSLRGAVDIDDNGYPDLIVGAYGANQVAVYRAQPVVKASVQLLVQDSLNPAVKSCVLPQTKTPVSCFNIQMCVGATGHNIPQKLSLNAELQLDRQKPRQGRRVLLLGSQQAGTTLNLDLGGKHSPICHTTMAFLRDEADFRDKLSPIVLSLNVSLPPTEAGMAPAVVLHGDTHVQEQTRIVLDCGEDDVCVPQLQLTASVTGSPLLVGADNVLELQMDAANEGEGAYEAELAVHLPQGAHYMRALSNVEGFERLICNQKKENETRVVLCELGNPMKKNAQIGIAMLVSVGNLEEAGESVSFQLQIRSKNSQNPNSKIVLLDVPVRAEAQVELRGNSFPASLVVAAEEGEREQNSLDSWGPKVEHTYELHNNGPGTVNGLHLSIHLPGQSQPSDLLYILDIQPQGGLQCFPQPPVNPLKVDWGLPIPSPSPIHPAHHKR
Sequence of GP IIb/IIIa (P08514 891-1039 partner limits assumed): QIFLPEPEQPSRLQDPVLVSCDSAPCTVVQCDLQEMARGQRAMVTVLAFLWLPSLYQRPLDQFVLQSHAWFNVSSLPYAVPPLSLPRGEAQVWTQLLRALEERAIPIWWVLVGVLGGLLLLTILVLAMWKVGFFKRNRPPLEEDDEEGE
Sequence of GP IIb/IIIa (P05106 27-788): as the sequence (P05106 27-788) above

With `CC1=NCC(C(CC(=O)O)CC2CCN(C(=O)CCc3ccc4c(n3)NCCC4)CC2)CN1` (stereo not drawn) [Cpd 18, 1,4,5,6-tetrahydro-2-methyl-β-[[1-[1-oxo-3-(5,6,7,8-tetrahydro-1,8-naphthyridin-2-yl)propyl]-4-piperidinyl]methyl]-5-pyrimidinepropanoic acid], the IC50 at GP IIb/IIIa (read-out: αIIbβ3 IC50) was more than 50 µM; at human purified αVβ5, more than 5000 nM; on Human αvβ3 it was more than 5000 nM.

As to `O=C(O)CC(CC1CCN(C(=O)CCc2ccc3c(n2)NCCC3)CC1)c1cccc(F)c1` (stereo not drawn) [Cpd 30, β-(3-fluorophenyl)-1-[1-oxo-3-(5,6,7,8-tetrahydro-1,8-naphthyridin-2-yl)propyl]-4-piperidinebutanoic acid], the IC50 at GP IIb/IIIa (read-out: αIIbβ3 IC50) stood at 14.4 ± 5.98 µM; at human purified αVβ5, 2.8 ± 0.1 nM; on Human αvβ3, 1 ± 0.2 nM.

As to `O=C(O)CC(c1ccc2c(c1)OCO2)C1CCN(C(=O)CCCc2ccc3c(n2)NCCC3)CC1` (stereo not drawn) [Cpd 15, β-(1,3-benzodioxol-5-yl)-1-[1-oxo-4-(5,6,7,8-tetrahydro-1,8-naphthyridin-2-yl)butyl]-4-piperidinepropanoic acid], the IC50 at GP IIb/IIIa (read-out: αIIbβ3 IC50) is 4.03 ± 0.43 µM; at human purified αVβ5 it was 33.4 ± 6.3 nM; on Human αvβ3 it was 1.9 ± 0.2 nM.

With `COc1ccc(C(CC(=O)O)CC2CCN(C(=O)CCc3ccc4c(n3)NCCC4)CC2)cc1` (racemic) [Cpd 60], the IC50 on GP IIb/IIIa (read-out: αIIbβ3 IC50) was found to be 4.53 ± 2.47 µM; on human purified αVβ5, 30.9 ± 0.6 nM; on Human αvβ3, 1 ± 0.8 nM.

Regarding `O=C(O)CC(CC1CCN(C(=O)CCc2ccc3c(n2)NCCC3)CC1)c1ccc2c(c1)OCCO2` (racemic) [Cpd 65], the IC50 at GP IIb/IIIa (read-out: αIIbβ3 IC50) was 3.84 µM; at human purified αVβ5, 34.6 ± 0.2 nM; on Human αvβ3, 0.8 nM.

As for `CC(C)(C)C(=O)OCOC(=O)CCCC1CCN(C(=O)CCc2ccc3c(n2)NCCC3)CC1` [Cpd 74, 4-[1-(3-5,6,7,8-Tetrahydro-[1,8]naphthyridin-2-yl-propionyl)-piperidin-4-yl]-butyric acid 2,2-dimethyl-propionyloxymethyl ester], the values for the IC50 on GP IIb/IIIa (read-out: αIIbβ3 IC50), at human purified αVβ5 and on Human αvβ3 were more than 50 µM, more than 1000 nM and 193 nM, respectively.

For `O=C(O)CC(c1ccc2c(c1)OCO2)C1CCN(C(=O)CCCNc2ccccn2)CC1` (stereo not drawn) [Cpd 24, β-(1,3-benzodioxol-5-yl)-1-[1-oxo-4-(2-pyridinylamino)butyl]-4-piperidinepropanoic acid], the figures for the IC50 on GP IIb/IIIa (read-out: αIIbβ3 IC50), on human purified αVβ5 and at Human αvβ3 were 19.3 µM, 387 nM and 307 nM, respectively.

Consider `O=C(O)CC(CC1CCN(C(=O)CCc2ccc3c(n2)NCCC3)CC1)c1ccccc1` (stereo not drawn) [Cpd 13, 1-[1-oxo-3-(5,6,7,8-tetrahydro-1,8-naphthyridin-2-yl)propyl]-β-phenyl-4-piperidinebutanoic acid], for which the IC50 on GP IIb/IIIa (read-out: αIIbβ3 IC50) amounted to 11.1 ± 3.4 µM; at human purified αVβ5, 36 ± 13.3 nM; on Human αvβ3, 3.2 ± 0.6 nM.

Take `O=C(O)CC(CCC1CCN(C(=O)CCc2ccc3c(n2)NCCC3)CC1)c1cccnc1` (stereo not drawn) [Cpd 8, β-[2-[1-[1-Oxo-3-(5,6,7,8-tetrahydro-1,8-naphthyridin-2-yl)propyl]-4-piperidinyl]ethyl]-3-pyridinepropanoic acid]: the IC50 on GP IIb/IIIa (read-out: αIIbβ3 IC50) is 1.36 ± 0.43 µM; at human purified αVβ5 it was 253 nM; on Human αvβ3, 17.9 ± 3.4 nM.

In the case of `CC(C)(C)OC(=O)CCCC1CCN(C(=O)CCc2ccc3c(n2)NCCC3)CC1` [Cpd 70, 4-[1-(3-5,6,7,8-Tetrahydro-[1,8]naphthyridin-2-yl-propionyl)-piperidin-4-yl]-butyric acid tert-butyl ester], the IC50 on GP IIb/IIIa (read-out: αIIbβ3 IC50) was more than 50 µM; at human purified αVβ5, more than 1000 nM; at Human αvβ3 it was more than 500 nM.

For `COc1ccc(C(CC(=O)O)C2CCN(C(=O)CCCc3ccc4c(n3)NCCC4)CC2)cn1` (stereo not drawn) [Cpd 17, 6-methoxy-β-[1-[1-oxo-4-(5,6,7,8-tetrahydro-1,8-naphthyridin-2-yl)butyl]-4-piperidinyl]-3-pyridinepropanoic acid], the IC50 on GP IIb/IIIa (read-out: αIIbβ3 IC50) was 6.6 ± 1.42 µM; at human purified αVβ5, 31.3 ± 6 nM; on Human αvβ3 it was 0.8 ± 0.1 nM.

As for `O=C(O)CC(c1ccc2c(c1)OCO2)C1CCN(C(=O)CCc2ccc3c(n2)NCCC3)CC1` (stereo not drawn) [Cpd 14, β-(1,3-benzodioxol-5-yl)-1-[1-oxo-3-(5,6,7,8-tetrahydro-1,8-naphthyridin-2-yl)propyl]-4-piperidinepropanoic acid], the IC50 was 5.04 µM on GP IIb/IIIa (read-out: αIIbβ3 IC50), 108 ± 34 nM on human purified αVβ5 and 36.1 ± 0.1 nM at Human αvβ3.

On to `O=C(O)CC(CC1CCN(C(=O)CCc2ccc3c(n2)NCCC3)CC1)C1CCOC1` (racemic) [Cpd 62], for which the IC50 at GP IIb/IIIa (read-out: αIIbβ3 IC50) was more than 50 µM; on human purified αVβ5, 170 ± 81 nM; on Human αvβ3, 90 ± 2 nM.

Consider `O=C(O)CC(CC1CCN(C(=O)CCc2ccc3c(n2)NCCC3)CC1)C1CNc2ccccc2C1` (single isomer, unassigned) [Cpd 19-4, 1,2,3,4-tetrahydro-β-[[1-[1-oxo-3-(5,6,7,8-tetrahydro-1,8-naphthyridin-2-yl)propyl]-4-piperidinyl]methyl]-3-quinolinepropanoic acid], for which the figures for the IC50 at GP IIb/IIIa (read-out: αIIbβ3 IC50), at human purified αVβ5 and on Human αvβ3 were 4.86 µM, 7.5 ± 1.8 nM and 1.3 ± 0.7 nM, respectively.

Take `O=C(O)CC(CC1CCN(CCCc2ccc3c(n2)NCCC3)CC1)c1cccc(F)c1` (racemic) [Cpd 81, 3-(3-Fluoro-phenyl)-4-[1-(3-5,6,7,8-tetrahydro-[1,8]naphthyridin-2-yl-propyl]-piperidin-4-yl]-butyric acid]: the IC50 on GP IIb/IIIa (read-out: αIIbβ3 IC50) is 22.7 µM; at human purified αVβ5, 10.1 ± 1.7 nM; at Human αvβ3, 6.7 ± 0.2 nM.

As for `O=C(O)CCCC1CCN(C(=O)CCc2ccc3c(n2)NCCC3)CC1` [Cpd 61], the figures for the IC50 at GP IIb/IIIa (read-out: αIIbβ3 IC50), on human purified αVβ5 and at Human αvβ3 were 37.5 ± 31.6 µM, 25.3 ± 7.3 nM and 4.5 ± 0.7 nM, respectively.

Take `O=C(O)CC(CC1CCN(C(=O)CCc2ccc3c(n2)NCCC3)CC1)C1CNc2ccccc2C1` (stereo not drawn) [Cpd 19, 1,2,3,4-tetrahydro-β-[[1-[1-oxo-3-(5,6,7,8-tetrahydro-1,8-naphthyridin-2-yl)propyl]-4-piperidinyl]methyl]-3-quinolinepropanoic acid]: the results for the IC50 at GP IIb/IIIa (αIIbβ3 IC50 (uM)), at human purified αVβ5 and on Human αvβ3 were 13.8 ± 9.69 µM, 17.1 ± 2.5 nM and 2.5 ± 0.4 nM, respectively.

As for `O=C(O)CC(CC1CCN(C(=O)CCc2ccc3c(n2)NCCC3)CC1)c1ccc2ccccc2c1` (stereo not drawn) [Cpd 56, β-(2-naphthalenyl)-1-[1-oxo-3-(5,6,7,8-tetrahydro-1,8-naphthyridin-2-yl)propyl]-4-piperidinebutanoic acid], the results for the IC50 on GP IIb/IIIa (read-out: αIIbβ3 IC50), at human purified αVβ5 and at Human αvβ3 were 39.1 ± 0.785 µM, 24.5 ± 6.5 nM and 1.9 ± 0.6 nM, respectively.

As to `O=C(O)CC(CC1CCN(C(=O)CCCc2ccc3c(n2)NCCC3)CC1)c1cc(F)cc(F)c1` (stereo not drawn) [Cpd 38, β-(3,5-difluorophenyl)-1-[1-oxo-4-(5,6,7,8-tetrahydro-1,8-naphthyridin-2-yl)butyl]-4-piperidinebutanoic acid], the IC50 at GP IIb/IIIa (read-out: αIIbβ3 IC50) was more than 50 µM; on human purified αVβ5, 2110 nM; at Human αvβ3 it was 484 nM.

Turning to `COc1ncc(C(CC(=O)O)CC2CCN(C(=O)CCc3ccc4c(n3)NCCC4)CC2)c(OC)n1` (stereo not drawn) [Cpd 47, 2,4-dimethoxy-β-[[1-[1-oxo-3-(5,6,7,8-tetrahydro-1,8-naphthyridin-2-yl)propyl]-4-piperidinyl]methyl]-5-pyrimidinepropanoic acid], the IC50 on GP IIb/IIIa (read-out: αIIbβ3 IC50) was determined as 1.47 ± 0.37 µM; on human purified αVβ5, 4.6 ± 1.7 nM; at Human αvβ3, 1.4 ± 0.7 nM.

For the compound `CCOC(=O)CCCC1CCN(C(=O)CCc2ccc3c(n2)NCCC3)CC1` [Cpd 68, 4-[1-(3-5,6,7,8-Tetrahydro-[1,8]naphthyridin-2-yl-propionyl)-piperidin-4-yl]-butyric acid ethyl ester], the IC50 at GP IIb/IIIa (read-out: αIIbβ3 IC50) was 35.6 µM; at human purified αVβ5 it was more than 1000 nM; at Human αvβ3, 413 nM.

With `Cc1ncc(C(CC(=O)O)CC2CCN(C(=O)CCc3ccc4c(n3)NCCC4)CC2)cn1` (stereo not drawn) [Cpd 35, 2-methyl-β-[[1-[1-oxo-3-(5,6,7,8-tetrahydro-1,8-naphthyridin-2-yl)propyl]-4-piperidinyl]methyl]-5-pyrimidinepropanoic acid], the values for the IC50 on GP IIb/IIIa (read-out: αIIbβ3 IC50), at human purified αVβ5 and at Human αvβ3 were 0.965 ± 0.07 µM, 0.7 ± 0.2 nM and 0.7 ± 0.4 nM, respectively.
